Assays:
[1] = molar heat capacity at saturation pressure
[2] = Molar enthalpy of transition or fusion; conditions: Crystal

c1ccc(Cc2ccccc2)cc1 [diphenylmethane]
Conditions	mass density [kg/m3]	vapor or sublimation pressure [kPa]
308.14 K, Liquid, Vibrating tube method	996.7	–
323.14 K, Liquid, Vibrating tube method	985.3	–
329.99 K, Liquid, Inclined piston gauge	–	0.0261
339.99 K, Liquid, Inclined piston gauge	–	0.0523
348.13 K, Liquid, Vibrating tube method	965.6	–
349.98 K, Liquid, Inclined piston gauge	–	0.0995
359.97 K, Liquid, Inclined piston gauge	–	0.1814
369.98 K, Liquid, Inclined piston gauge	–	0.3181
373.12 K, Liquid, Vibrating tube method	945.8	–
379.98 K, Liquid, Inclined piston gauge	–	0.5378
389.97 K, Liquid, Inclined piston gauge	–	0.8793
398.12 K, Liquid, Vibrating tube method	926.1	–
399.97 K, Liquid, Inclined piston gauge	–	1.395
408.21 K, Liquid, Twin ebulliometer	–	2
409.97 K, Liquid, Inclined piston gauge	–	2.155
414.97 K, Liquid, Inclined piston gauge	–	2.651
415.11 K, Liquid, Twin ebulliometer	–	2.666
419.97 K, Liquid, Inclined piston gauge	–	3.243
423.12 K, Liquid, Vibrating tube method	905.7	–
425.34 K, Liquid, Twin ebulliometer	–	4
432.99 K, Liquid, Twin ebulliometer	–	5.333
444.38 K, Liquid, Twin ebulliometer	–	7.999
448.11 K, Liquid, Vibrating tube method	885.4	–
452.93 K, Liquid, Twin ebulliometer	–	10.67
459.84 K, Liquid, Twin ebulliometer	–	13.33
467.03 K, Liquid, Twin ebulliometer	–	16.66
473 K, Liquid, Twin ebulliometer	–	19.93
473.11 K, Liquid, Vibrating tube method	864.3	–
480.86 K, Liquid, Twin ebulliometer	–	25.02
488.78 K, Liquid, Twin ebulliometer	–	31.17
496.76 K, Liquid, Twin ebulliometer	–	38.56
498.11 K, Liquid, Vibrating tube method	842.6	–
504.79 K, Liquid, Twin ebulliometer	–	47.37
512.88 K, Liquid, Twin ebulliometer	–	57.81
521.02 K, Liquid, Twin ebulliometer	–	70.11
523.11 K, Liquid, Vibrating tube method	819.2	–
529.22 K, Liquid, Twin ebulliometer	–	84.53
537.47 K, Liquid, Twin ebulliometer	–	101.31
545.78 K, Liquid, Twin ebulliometer	–	120.78
554.14 K, Liquid, Twin ebulliometer	–	143.23
562.56 K, Liquid, Twin ebulliometer	–	169
571.03 K, Liquid, Twin ebulliometer	–	198.46
579.55 K, Liquid, Twin ebulliometer	–	231.99
588.13 K, Liquid, Twin ebulliometer	–	269.98
743.8 K, Gas, DSC	104.3	–
754.8 K, Gas, DSC	148.4	–
760.6 K, Liquid, DSC	417.7	–
767.1 K, Liquid, DSC	417.5	–
769.8 K, Liquid, DSC	397.2	–
770 K, Gas, DSC	191.2	–
775.7 K, Gas, DSC	220.3	–
776.5 K, Liquid, DSC	333.5	–
777 K, Liquid, DSC	304.2	–

Conditions	Molar enthalpy of transition or fusion [kcal/mol]	Triple point temperature [K]
Crystal	–	298.37
[2]	4.543	–

Conditions	Critical temperature [K]
Liquid, DTA	778

molar heat capacity [J/K/mol], [1]
Conditions	Crystal	Liquid
5 K, Vacuum adiabatic calorimetry	0.38	–
5.364 K, Vacuum adiabatic calorimetry	0.47	–
6.296 K, Vacuum adiabatic calorimetry	0.76	–
7.218 K, Vacuum adiabatic calorimetry	1.16	–
8.187 K, Vacuum adiabatic calorimetry	1.71	–
9.195 K, Vacuum adiabatic calorimetry	2.42	–
10 K, Vacuum adiabatic calorimetry	3.12	–
10.21 K, Vacuum adiabatic calorimetry	3.31	–
11.33 K, Vacuum adiabatic calorimetry	4.39	–
12.6 K, Vacuum adiabatic calorimetry	5.74	–
13.99 K, Vacuum adiabatic calorimetry	7.45	–
15.53 K, Vacuum adiabatic calorimetry	9.437	–
17.24 K, Vacuum adiabatic calorimetry	11.84	–
19.13 K, Vacuum adiabatic calorimetry	14.59	–
20 K, Vacuum adiabatic calorimetry	15.87	–
21.21 K, Vacuum adiabatic calorimetry	17.66	–
23.51 K, Vacuum adiabatic calorimetry	21.15	–
26.07 K, Vacuum adiabatic calorimetry	24.97	–
28.93 K, Vacuum adiabatic calorimetry	29.09	–
30 K, Vacuum adiabatic calorimetry	30.59	–
32.11 K, Vacuum adiabatic calorimetry	33.47	–
35.66 K, Vacuum adiabatic calorimetry	37.99	–
39.62 K, Vacuum adiabatic calorimetry	42.58	–
40 K, Vacuum adiabatic calorimetry	43	–
44.02 K, Vacuum adiabatic calorimetry	47.26	–
48.94 K, Vacuum adiabatic calorimetry	51.94	–
50 K, Vacuum adiabatic calorimetry	52.92	–
50.87 K, Vacuum adiabatic calorimetry	53.74	–
52.95 K, Vacuum adiabatic calorimetry	55.44	–
54.43 K, Vacuum adiabatic calorimetry	56.74	–
55.01 K, Vacuum adiabatic calorimetry	57.11	–
57.89 K, Vacuum adiabatic calorimetry	59.58	–
59.91 K, Vacuum adiabatic calorimetry	61.04	–
60 K, Vacuum adiabatic calorimetry	61.11	–
63.59 K, Vacuum adiabatic calorimetry	63.66	–
65.43 K, Vacuum adiabatic calorimetry	65.06	–
69.82 K, Vacuum adiabatic calorimetry	68.05	–
70 K, Vacuum adiabatic calorimetry	68.16	–
76.62 K, Vacuum adiabatic calorimetry	72.36	–
78.19 K, Vacuum adiabatic calorimetry	73.39	–
80 K, Vacuum adiabatic calorimetry	74.47	–
81.13 K, Vacuum adiabatic calorimetry	75.18	–
84.19 K, Vacuum adiabatic calorimetry	76.96	–
85.52 K, Vacuum adiabatic calorimetry	77.76	–
88.47 K, Vacuum adiabatic calorimetry	79.51	–
90 K, Vacuum adiabatic calorimetry	80.38	–
96.79 K, Vacuum adiabatic calorimetry	84.28	–
100 K, Vacuum adiabatic calorimetry	86.12	–
105.91 K, Vacuum adiabatic calorimetry	89.5	–
115.55 K, Vacuum adiabatic calorimetry	94.96	–
120 K, Vacuum adiabatic calorimetry	97.5	–
125.31 K, Vacuum adiabatic calorimetry	100.54	–
135.12 K, Vacuum adiabatic calorimetry	106.25	–
140 K, Vacuum adiabatic calorimetry	109.13	–
145.06 K, Vacuum adiabatic calorimetry	112.15	–
155.05 K, Vacuum adiabatic calorimetry	118.34	–
160 K, Vacuum adiabatic calorimetry	121.47	–
165.03 K, Vacuum adiabatic calorimetry	124.68	–
175.01 K, Vacuum adiabatic calorimetry	131.04	–
180 K, Vacuum adiabatic calorimetry	134.55	–
185 K, Vacuum adiabatic calorimetry	138.14	–
195.05 K, Vacuum adiabatic calorimetry	145.11	–
200 K, Vacuum adiabatic calorimetry	148.68	–
205.14 K, Vacuum adiabatic calorimetry	152.48	–
215.25 K, Vacuum adiabatic calorimetry	160.17	–
220 K, Vacuum adiabatic calorimetry	163.86	–
225.34 K, Vacuum adiabatic calorimetry	168.15	–
235.38 K, Vacuum adiabatic calorimetry	176.42	–
240 K, Vacuum adiabatic calorimetry	180.3	–
245.37 K, Vacuum adiabatic calorimetry	185.01	–
246.51 K, Vacuum adiabatic calorimetry	185.99	–
255.32 K, Vacuum adiabatic calorimetry	193.89	–
257.33 K, Vacuum adiabatic calorimetry	195.76	–
260 K, Vacuum adiabatic calorimetry	198.12	–
268.6 K, Vacuum adiabatic calorimetry	206.43	–
279.29 K, Vacuum adiabatic calorimetry	217.16	–
280 K, Vacuum adiabatic calorimetry	217.44	–
289.28 K, Vacuum adiabatic calorimetry	229.55	–
289.37 K, Vacuum adiabatic calorimetry	229.9	–
298.15 K, Vacuum adiabatic calorimetry	236.26	267.36
298.37 K, Vacuum adiabatic calorimetry	236.5	267.48
300 K, Vacuum adiabatic calorimetry	–	268.32
303.38 K, Vacuum adiabatic calorimetry	–	270.07
305.34 K, Vacuum adiabatic calorimetry	–	270.99
305.59 K, Vacuum adiabatic calorimetry	–	271.14
313.82 K, Vacuum adiabatic calorimetry	–	275.26
320 K, Vacuum adiabatic calorimetry	–	278.43
325.59 K, Vacuum adiabatic calorimetry	–	281.23
339.57 K, Vacuum adiabatic calorimetry	–	288.4
340 K, Vacuum adiabatic calorimetry	–	288.62
356.66 K, Vacuum adiabatic calorimetry	–	297.31
360 K, Vacuum adiabatic calorimetry	–	299.1
373.63 K, Vacuum adiabatic calorimetry	–	306.34
380 K, Vacuum adiabatic calorimetry	–	309.56
390.49 K, Vacuum adiabatic calorimetry	–	314.87
400 K, Vacuum adiabatic calorimetry	–	319.92
407.29 K, Vacuum adiabatic calorimetry	–	323.8
420 K, Vacuum adiabatic calorimetry	–	330.39
424.08 K, Vacuum adiabatic calorimetry	–	332.47
438.41 K, Vacuum adiabatic calorimetry	–	339.81
440 K, Vacuum adiabatic calorimetry	–	340.5
460 K, Vacuum adiabatic calorimetry	–	349.5
480 K, Small sample (50 mg) DSC	–	358.67
500 K, Small sample (50 mg) DSC	–	367.6
520 K, Small sample (50 mg) DSC	–	376.3
540 K, Small sample (50 mg) DSC	–	384.6
560 K, Small sample (50 mg) DSC	–	392.7
580 K, Small sample (50 mg) DSC	–	400.5
600 K, Small sample (50 mg) DSC	–	407.9
620 K, Small sample (50 mg) DSC	–	415.1
640 K, Small sample (50 mg) DSC	–	422.3
660 K, Small sample (50 mg) DSC	–	429.6
680 K, Small sample (50 mg) DSC	–	437.4
700 K, Small sample (50 mg) DSC	–	446.9

Reference: the NIST ThermoML archive (doi:10.1021/je050034s)
